Measurements taken from PubChem BioAssay (NCI).
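Five compound concentrations were applied to cells in 96-well plates for 48 hours; endpoints were derived by simple linear interpolation of the resulting dose-response curve. The concentration for full growth arrest is given as TGI.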

Legend:
Test in all cases: NCI anticancer screen, dose series, 48 h
ACHN renal = system: ACHN renal
COLO 205 colon = system: COLO 205 colon
DU-145 prostate = system: DU-145 prostate
HCC-2998 colon = system: HCC-2998 colon
HOP-92 NSCLC = system: HOP-92 NSCLC
HT29 colon = system: HT29 colon
IGROV1 ovarian = system: IGROV1 ovarian
NCI-H460 lung = system: NCI-H460 lung
SF-295 CNS = system: SF-295 CNS
SNB-19 CNS = system: SNB-19 CNS
SW-620 colon = system: SW-620 colon
T-47D breast = system: T-47D breast
U251 CNS = system: U251 CNS
UACC-257 melanoma = system: UACC-257 melanoma
UO-31 renal = system: UO-31 renal

CO[C@H]1[C@@H](O)[C@@H](C)O[C@@H](O[C@H]2CC[C@@]3(C)[C@H](CC[C@@H]4[C@@H]3CC[C@]3(C)[C@@H](C5=CC(=O)OC5)[C@@H](OC(C)=O)C[C@]43O)C2)[C@@H]1O
TGI (ACHN renal): 57.5 nM | TGI (COLO 205 colon): 447 nM | TGI (DU-145 prostate): 58.9 nM | TGI (HCC-2998 colon): 824 nM | TGI (HOP-92 NSCLC): 577 nM | TGI (HT29 colon): 209 nM | TGI (IGROV1 ovarian): 772 nM | TGI (NCI-H460 lung): 61.7 nM | TGI (SF-295 CNS): 550 nM | TGI (SNB-19 CNS): 507 nM | TGI (SW-620 colon): > 50000 nM | TGI (T-47D breast): 435 nM | TGI (U251 CNS): 186 nM | TGI (UACC-257 melanoma): 239 nM | TGI (UO-31 renal): 68.6 nM
